The values that follow come from publication PMC10253577, “Conformationally Restricted Glycoconjugates Derived from Arylsulfonamides and Coumarins: New Families of Tumour-Associated Carbonic Anhydrase Inhibitors” (International Journal of Molecular Sciences, 2023).

Series [1] has as its target T1, hCA IX (Homo sapiens, UniProt Q16790). Kind of series: stopped-flow CO2 hydration assay, hCA IX. The following applies: for S.I. I/IX: Ki (CA I)/Ki (CA IX); for S.I. II/IX: Ki (CA II)/Ki (CA IX).
Description: (§3) The panel of CA-directed compounds prepared herein were assessed in vitro against a series of isoforms of human CA with relevant therapeutic interest.
(§4) The choice of such isoforms will provide information about selectivity against tumour-associated CA IX and XII compared to other relevant CAs.
(§5) The inhibitory properties of title compounds against CAs were determined using the stopped-flow CO2 hydrase assay, as previously reported [46].
The target in the next series is hCA XII (Homo sapiens, UniProt O43570). Kind of series: stopped-flow CO2 hydration assay, hCA XII. The following applies: for S.I. I/XII: Ki (CA I)/Ki (CA XII); for S.I. II/XII: Ki (CA II)/Ki (CA XII).
In series [2] the target is T1, hCA IX. Set-up: made in house. The following applies: previously reported thioureas; cited from earlier work.
The target of another series is hCA IV (Homo sapiens, UniProt P22748). In words: stopped-flow CO2 hydration assay, hCA IV. To be noted: mean from three assays, errors ±5–10%.
A further series concerns the target hCA I (Homo sapiens, UniProt P00915). In words: stopped-flow CO2 hydration assay, hCA I.
The next series addresses hCA II (Homo sapiens, UniProt P00918). In words: stopped-flow CO2 hydration assay, hCA II.
Series [3] deals with panel of six human solid tumour cell lines (A549, HBL-100, HeLa, SW1573, T-47D, WiDr). In words: antiproliferative assay (NCI protocol), whole panel. In kind it is cell-based. An excerpt: (§1) The compounds prepared herein were subjected to in vitro testing as potential antiproliferative agents against a panel of six human solid tumour cell lines, following minor modifications of the protocol from the US National Cancer Institute (NCI). They can be categorized into two groups: drug-sensitive cell lines (A549, HBL-100, HeLa, SW1573) and multidrug resistant cell lines (T-47D, WiDr). […] Ph-derived thiourea 21e and imidazolidine-2-thione 24f were not included in the study.
(§2) Minor modifications of the US National Cancer Institute (NCI) protocol were used.

The next series concerns T-47D (Breast). In words: antiproliferative assay (NCI protocol), T-47D. It is filed as cell-based. To be noted: Homo sapiens, T47D; multidrug-resistant cell line, mean ± SD.
Description: as §1, §2

Another series deals with SW1573 (Lung, Non-Small). Kind of series: antiproliferative assay (NCI protocol), SW1573. The following applies: Homo sapiens, drug-sensitive cell line, mean ± SD. In kind it is cell-based.
Description: as §1, §2

For another series, the system named is A549 (Lung, Non-Small). Kind of series: antiproliferative assay (NCI protocol), A549. It is filed as cell-based. To be noted: Homo sapiens, drug-sensitive cell line, mean ± SD.
Description: as §1, §2

The test system of a further series is HBL-100 (Breast). Kind of series: antiproliferative assay (NCI protocol), HBL-100. In kind it is cell-based. The following applies: Homo sapiens, drug-sensitive cell line, mean ± SD.
Description: as §1, §2

Another series has as its system WiDr (Colon). In words: antiproliferative assay (NCI protocol), WiDr. It is filed as cell-based. The following applies: Homo sapiens, multidrug-resistant cell line, mean ± SD.
Description: as §1, §2

The test system of a further series is HeLa (Cervix). In words: antiproliferative assay (NCI protocol), HeLa. In kind it is cell-based. To be noted: Homo sapiens, drug-sensitive cell line, mean ± SD.
Description: as §1, §2

Structures are written as SMILES. Like-named read-outs stand apart in the source and are kept apart here.

hCA IV, sequence (P22748 19-312): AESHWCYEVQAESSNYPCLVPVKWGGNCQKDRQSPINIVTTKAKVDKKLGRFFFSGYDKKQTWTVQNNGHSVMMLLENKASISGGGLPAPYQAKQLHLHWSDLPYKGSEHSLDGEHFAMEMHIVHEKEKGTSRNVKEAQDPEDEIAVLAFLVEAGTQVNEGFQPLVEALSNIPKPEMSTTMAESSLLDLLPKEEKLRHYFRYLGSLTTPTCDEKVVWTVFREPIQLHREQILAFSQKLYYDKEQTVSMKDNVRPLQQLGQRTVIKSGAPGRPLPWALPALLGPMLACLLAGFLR
hCA I, sequence (P00915 whole entry): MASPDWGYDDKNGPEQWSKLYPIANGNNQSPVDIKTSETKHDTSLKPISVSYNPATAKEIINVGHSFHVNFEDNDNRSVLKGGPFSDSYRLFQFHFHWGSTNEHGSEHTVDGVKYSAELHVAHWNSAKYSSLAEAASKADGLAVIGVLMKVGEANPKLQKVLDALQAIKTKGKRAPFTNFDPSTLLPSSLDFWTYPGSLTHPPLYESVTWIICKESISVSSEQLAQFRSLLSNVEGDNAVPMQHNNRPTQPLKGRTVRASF
hCA XII, sequence (O43570 25-354): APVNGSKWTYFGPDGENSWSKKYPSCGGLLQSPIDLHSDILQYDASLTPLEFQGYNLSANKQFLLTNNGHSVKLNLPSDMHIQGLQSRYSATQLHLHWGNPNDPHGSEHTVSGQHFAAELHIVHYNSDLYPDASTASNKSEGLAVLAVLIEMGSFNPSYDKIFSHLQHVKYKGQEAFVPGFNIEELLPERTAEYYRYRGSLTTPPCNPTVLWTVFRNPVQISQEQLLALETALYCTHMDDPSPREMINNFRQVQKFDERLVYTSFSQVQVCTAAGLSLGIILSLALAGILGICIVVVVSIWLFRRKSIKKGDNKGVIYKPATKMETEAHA
Description for hCA II: as §3, §4, §5
Description for hCA IV: as §3, §4, §5
Description for hCA XII: as §3, §4, §5

In the case of `NS(=O)(=O)c1ccc(NC(=S)N[C@@H]2O[C@H](CO)[C@@H](O)[C@H](O)[C@H]2O)cc1` [Compound 1a], on hCA IX [1], the “S.I. I/IX” value was found to be 27.2 and the “S.I. II/IX” value is on record as 0.02. Also, at hCA XII, the “S.I. I/XII” value was found to be 937 and the “S.I. II/XII” value is on record as 0.9.

For the compound `NS(=O)(=O)c1ccc(CCNC(=S)N[C@@H]2O[C@H](CO)[C@@H](O)[C@H](O)[C@H]2O)cc1` [Compound 1c], on hCA IX [1], the “S.I. I/IX” value worked out at 1.0 and the “S.I. II/IX” value was 12.4. On hCA XII, the “S.I. I/XII” value was found to be 0.9 and the “S.I. II/XII” value turned out to be 11.1.

As to `NS(=O)(=O)c1ccc(NC(=S)N[C@@H]2O[C@H](CO)[C@H](O)[C@H](O)[C@H]2O)cc1` [Compound 2a], at hCA IX [1], the “S.I. I/IX” value came to 977.1 and the “S.I. II/IX” value was 31.7. Besides, on hCA XII, the “S.I. I/XII” value turned out to be 340 and the “S.I. II/XII” value was 11.0.

Regarding `NS(=O)(=O)c1ccc(CCNC(=S)N[C@@H]2O[C@H](CO)[C@H](O)[C@H](O)[C@H]2O)cc1` [Compound 2c], on hCA IX [1], the “S.I. I/IX” value turned out to be 2067.9 and the “S.I. II/IX” value was determined as 3.3. On hCA XII, the “S.I. I/XII” value was 568 and the “S.I. II/XII” value is given as 0.9.

A word on the Ki: it is the dissociation constant of the complex between target and ligand, obtained from inhibition or displacement. Consider `NS(=O)(=O)c1ccc(NC(=S)NC2C(O)OC(CO)C(O)C2O)cc1` (stereo not shown) [Compound 3a], for which the Ki at hCA IX [2] was 0.077 µM. At hCA IX [1], the “S.I. I/IX” value was 35.1 and the “S.I. II/IX” value came to 126.

Turning to `NS(=O)(=O)c1cccc(NC(=S)NC2C(O)OC(CO)C(O)C2O)c1` (stereo not shown) [Compound 3b], the inhibitory constant (Ki) at hCA IX [2] was 0.009 µM.

For `NS(=O)(=O)c1ccc(NC(=S)N[C@H]2C(O)O[C@H](CO)[C@H](O)[C@@H]2O)cc1` (stereo partly shown) [Compound 4a], at hCA IX [2], the Ki was 0.074 µM. Further, on hCA IX [1], the “S.I. I/IX” value is recorded as 48.6 and the “S.I. II/IX” value is 104.

On to `NS(=O)(=O)c1cccc(NC(=S)N[C@H]2C(O)O[C@H](CO)[C@H](O)[C@@H]2O)c1` (stereo partly shown) [Compound 4b], for which, at hCA IX [2], the Ki is 0.042 µM. Further, at hCA IX [1], the “S.I. I/IX” value came out at 102.4 and the “S.I. II/IX” value is given as 22.4.

The compound `NS(=O)(=O)c1ccc(N2C(=S)NC3C(O)C(C(O)CO)OC32)cc1` [Compound 8a, 1-(4′-Sulfonamidophenyl)-(1″,2″-dideoxy-α-D-glucofurano)[2,1-d]imidazolidine-2-thione] displayed a Ki on hCA IV of 0.348 µM.

In turn, `NS(=O)(=O)c1cccc(N2C(=S)NC3C(O)C(C(O)CO)OC32)c1` [Compound 8b, 1-(3′-Sulfonamidophenyl)-(1″,2″-dideoxy-α-D-glucofurano)[2,1-d]imidazolidine-2-thione] returned a Ki on hCA IV of 0.0451 µM.

At hCA IV, `NS(=O)(=O)c1ccc(CCN2C(=S)NC3C(O)C(C(O)CO)OC32)cc1` [Compound 8c, 1-[2′-(4″-Sulfonamidophenyl)]ethyl-(1‴,2‴-dideoxy-α-D-glucofurano)[2,1-d]imidazolidine-2-thione] yielded a Ki of 1.05 µM.

On hCA IV, `NS(=O)(=O)c1ccc(N2C(=S)NC3C(O)C(C(O)CO)OC32)cc1` [Compound 9a, 1-(4′-Sulfonamidophenyl)-(1″,2″-dideoxy-α-D-galactofurano)[2,1-d]imidazolidine-2-thione] yielded a Ki of 4.57 µM.

`NS(=O)(=O)c1cccc(N2C(=S)NC3C(O)C(C(O)CO)OC32)c1` [Compound 9b, 1-(3′-Sulfonamidophenyl)-(1″,2″-dideoxy-α-D-galactofurano)[2,1-d]imidazolidine-2-thione] showed a Ki at hCA IV of 27.3 µM.

Broadly, the melting point is the temperature of the solid-liquid transition. In turn, `CO[C@H]1O[C@H](CO)[C@@H](O)[C@H](O)[C@H]1NC(=S)NCCCCOc1ccc2c(-c3ccccc3)cc(=O)oc2c1` [Compound 21e, N-(Methyl 2-deoxy-α-D-glucopyranosid-2-yl)-N′-{4′-[7″-(4″-phenyl-2″-oxo-2″H-chromen-7″-yl)oxy]butyl}thiourea] returned a melting point of 165 °C. Further, at hCA IX [1], the inhibitory constant (Ki) stood at 0.106 µM, the “S.I. I/IX” value is recorded as over 945 and the “S.I. II/IX” value is on record as over 945. The same compound showed an inhibition constant Ki at hCA I of over 100 µM. The compound further showed a Ki at hCA II of over 100 µM. On hCA XII, the Ki stood at 0.228 µM, the “S.I. I/XII” value is listed as over 439 and the “S.I. II/XII” value is reported as over 439.

As a reminder, the GI50 is the concentration that inhibits growth by half. As to `CO[C@H]1O[C@H](CO)[C@@H](O)[C@H](O)[C@H]1NC(=S)NCCCCCCOc1ccc2c(-c3ccccc3)cc(=O)oc2c1` [Compound 21f, N′-(Methyl 2-deoxy-α-D-glucopyranosid-2-yl)-N′-{6′-[7″-(4″-phenyl-2″-oxo-2″H-chromen-7″-yl)oxy]hexyl}thiourea], the melting point came to 148 °C. Also, the GI50 in series [3] (the five cell lines other than SW1573, read-out: GI50, other five lines) fell in the range of 23 to 36 µM. The compound further came in with a GI50 in the series with T-47D (Breast) of 30 ± 7.4 µM. The same compound gave a GI50 in the series on SW1573 (Lung, Non-Small) of 9.7 µM. Moreover, the GI50 with A549 (Lung, Non-Small) came to 34 ± 4 µM. At hCA IX [1], the inhibition constant Ki worked out at 0.116 µM, the “S.I. I/IX” value is over 858 and the “S.I. II/IX” value was 148. Moreover, the GI50 with HBL-100 (Breast) was 23 ± 3.2 µM. Also, the inhibition constant Ki on hCA I is over 100 µM. For the same compound, halving of growth in the series with WiDr (Colon) (GI50) required 36 ± 16 µM. Besides, on hCA II, the Ki was determined as 17.3 µM. Moreover, at hCA XII, affinity was put at a Ki of 0.164 µM, the “S.I. I/XII” value was over 610 and the “S.I. II/XII” value amounted to 106. The compound also had a GI50 in the series with HeLa (Cervix) of 25 ± 8 µM.

Regarding `Cc1cc(=O)oc2cc(OCCCCCCN3C(=S)N[C@@H]4[C@@H](O)[C@@H]([C@H](O)CO)O[C@@H]43)ccc12` [Compound 24c, 1-{6′-[7″-(4″-Methyl-2″-oxo-2″H-chromen-7″-yl)oxy]hexyl}-(1‴,2‴-dideoxy-α-D-glucofurano)[2,1-d]imidazolidine-2-thione], the Ki on hCA I and at hCA II was over 100 µM in each case.

As to `O=c1cc(-c2ccccc2)c2ccc(OCCCCN3C(=S)N[C@@H]4[C@@H](O)[C@@H]([C@H](O)CO)O[C@@H]43)cc2o1` [Compound 24e, 1-{4′-[7″-(4″-Phenyl-2″-oxo-2″H-chromen-7″-yl)oxy]butyl}-(1‴,2‴-dideoxy-α-D-glucofurano)[2,1-d]imidazolidine-2-thione], the GI50 stood at 70 ± 23 µM in the series on T-47D (Breast); 5.7 ± 1.8 µM in the series with SW1573 (Lung, Non-Small); 64 ± 31 µM in the series with A549 (Lung, Non-Small); 23 ± 0.8 µM in the series on HBL-100 (Breast); 47 ± 11 µM with WiDr (Colon); 31 ± 0.2 µM in the series on HeLa (Cervix).

Consider `O=c1cc(-c2ccccc2)c2ccc(OCCCCCCN3C(=S)N[C@@H]4[C@@H](O)[C@@H]([C@H](O)CO)O[C@@H]43)cc2o1` [Compound 24f, 1-{6′-[7″-(4″-Phenyl-2″-oxo-2″H-chromen-7″-yl)oxy]hexyl}-(1‴,2‴-dideoxy-α-D-glucofurano)[2,1-d]imidazolidine-2-thione], for which the concentration for 50% growth inhibition (GI50) in series [3] (maximum concentration tested 100 µM, read-out: GI50, all tested cell lines) is over 100 µM.

Turning to `Cc1cc(=O)oc2cc(OCCCCCCN3C(=S)NC4C(O)C(C(O)CO)OC43)ccc12` [Compound 26, 1-{4′-[7″-(4″-Methyl-2″-oxo-2″H-chromen-7″-yl)oxy]hexyl}-(1‴,2‴-dideoxy-α-D-galactofurano)[2,1-d]imidazolidine-2-thione], the Ki on hCA I and on hCA II was over 100 µM each time.

As to `CO[C@H]1O[C@H](CO)[C@@H](O)[C@H](O)[C@H]1NC(=S)Nc1ccc2c(C)cc(=O)oc2c1` [Compound C00016], the GI50 in the series on T-47D (Breast) is over 100 µM; with SW1573 (Lung, Non-Small) it was 79 ± 37 µM; in the series with A549 (Lung, Non-Small), 79 ± 36 µM; in the series with HBL-100 (Breast), 86 ± 25 µM; in the series with WiDr (Colon), over 100 µM; in the series with HeLa (Cervix), 83 ± 30 µM.
